# Assay results as given in patent US6361788B1, “Synergistic biocide composition” (Thor Chemie GmbH, priority 1997, dated 2002).
# Read-outs that look alike come from different tables or passages of the source.
# Experiments:
# Assay type in all cases: cell-based
# [1] = test system: Pseudomonas aeruginosa; assay: MIC and synergy of MIT/BIT (1:1) and HCHO in Müller-Hinton broth, 48 h
# Experimental: (§1) The synergy index is calculated according to the method of F. C. Kull et al., Applied Microbiology, Vol. 9 (1961), p. 538. Here the synergy index is calculated using the following formula:
# (§2) Synergy index SI=Qa/QA+Qb/QB.
# The test batches contained a Müller-Hinton broth as a nutrient medium. The cell density was 10^6 cells/mL. The incubation time was 48 h at 25° C. Each sample was incubated on an incubation shaker at 120 rpm.
# [2] = test system: Escherichia coli; assay: as above
# Experimental: as §1, §2
# The test batches contained a Müller-Hinton broth as a nutrient medium. The cell density was 10^6 cells/mL. The incubation time was 48 b at 25° C. Each sample was incubated on an incubation shaker at 120 rpm.
# [3] = test system: Penicillium funiculosum; assay: MIC and synergy of MIT/BIT (1:1) and OIT in Sabouraud maltose broth, 72 h; conditions: for growth of the microorganism: MIT/BIT ppm = row head c0; as to growth of the microorganism: key: growth of the microorganism took place (symbol '+'); or not (symbol '−')
# Experimental: (§3) In all the examples in which an active substance mixture of MIT and BIT as well as additionally a further active biocidal substance was used, the weight ratio of MIT to BIT was 1:1.
# as §1, §2
# The synergy of an active substance mixture that contains OIT in addition to MIT and BIT, against the microorganism Penicillium funiculosum is shown as in Example 1.
# (§4) The test batches contained a Sabouraud maltose broth as a nutrient medium. The spore concentration was 10^6 per mL. The incubation time was 72 h at 25° C. Each sample was incubated on an incubation shaker at 120 rpm.
# [4] = test system: Pseudomonas aeruginosa; assay: MIC and synergy of MIT/BIT (1:1) and OIT in Müller-Hinton broth, 144 h
# Experimental: as §3, §1, §2
# The synergy of an active substance mixture that contains OIT in addition to MIT and BIT, against the microorganism Pseudomonas aeruginosa is shown as in Example 1.
# The test batches contained a Müller-Hinton broth as a nutrient medium. The cell density was 10^6 cells/mL. The incubation time was 144 h at 25° C. Each sample was incubated on an incubation shaker at 120 rpm.
# [5] = test system: Aspergillus niger; assay: MIC and synergy of MIT/BIT (1:1) and OIT in Sabouraud maltose broth, 72 h
# Experimental: as §3, §1, §2
# The synergy of an active substance mixture that contains 2-n-octylisothiazolin-3-one (OIT) in addition to MIT and BIT, against the microorganism Aspergillus niger is shown as in Example 1.
# as §4
# [6] = test system: Saccharomyces cerevisiae; assay: as above
# Experimental: as §3, §1, §2
# The synergy of an active substance mixture that contains OIT in addition to MIT and BIT, against the microorganism Saccharomyces cerevisiae is shown as in Example 1.
# The test batches contained a Sabouraud maltose broth as a nutrient medium. The cell density was 10^6 cells/mL. The incubation time was 72 h at 25° C. Each sample was incubated on an incubation shaker at 120 rpm.
compound,measurement,setting,value
"C=O [HCHO, formaldehyde]",Qb/QB,[1],1.00
same,Synergy index Qa/QA + Qb/QB,[1],1.00
same,Total concentration MIT/BIT + HCHO,[1]; at the MIC,300 ppm
same,MIC,[1]; read-out: MIC at HCHO concentration Qb,300 µg/mL
same,MIC,[1]; read-out: MIC value,300 µg/mL
same,Qb/QB,[2]; 48 h,1.00
same,Synergy index Qa/QA + Qb/QB,[2]; 48 h,1.00
same,MIC,"[2]; 48 h, read-out: MIC at HCHO concentration Qb",300 µg/mL
same,Total concentration MIT/BIT + HCHO,"[2]; at the MIC, 48 h",300 ppm
same,MIC,[2]; read-out: MIC value,300 µg/mL
"CCCCCCCCn1sccc1=O [OIT, 2-n-octylisothiazolin-3-one]",growth of the microorganism,"[3]; OIT 0.25 ppm, 72 h",+
same,growth of the microorganism,"[3]; OIT 0.5 ppm, 72 h",+
same,growth of the microorganism,"[3]; OIT 1 ppm, 72 h",+
same,growth of the microorganism,"[3]; OIT 2.5 ppm, 72 h",+
same,growth of the microorganism,"[3]; OIT 5 ppm, 72 h",−
same,MIC at OIT concentration Qb,"[3]; OIT share at the MIC, Penicillium funiculosum, 72 h",5 ppm
same,Qb/QB,"[3]; Penicillium funiculosum, 72 h",1.00
same,Synergy index Qa/QA + Qb/QB,"[3]; Penicillium funiculosum, 72 h",1.00
same,Total concentration MIT/BIT + OIT,"[3]; at the MIC, Penicillium funiculosum, 72 h",5 ppm
same,MIC value,"[3]; used alone, 72 h at 25° C.",5 ppm
same,MIC at OIT concentration Qb,"[4]; OIT share at the MIC, Pseudomonas aeruginosa, 144 h",900 ppm
same,Qb/QB,"[4]; Pseudomonas aeruginosa, 144 h",1.00
same,Synergy index Qa/QA + Qb/QB,"[4]; Pseudomonas aeruginosa, 144 h",1.00
same,Total concentration MIT/BIT + OIT,"[4]; at the MIC, Pseudomonas aeruginosa, 144 h",900 ppm
same,MIC value,"[4]; used alone, 144 h at 25° C.",over 800 ppm
same,Qb/QB,"[5]; Aspergillus niger, 72 h",1.00
same,Synergy index Qa/QA + Qb/QB,"[5]; Aspergillus niger, 72 h",1.00
same,MIC at OIT concentration Qb,"[5]; OIT share at the MIC, Aspergillus niger, 72 h",5 ppm
same,Total concentration MIT/BIT + OIT,"[5]; at the MIC, Aspergillus niger, 72 h",5 ppm
same,MIC value,"[5]; used alone, 72 h at 25° C.",5 ppm
same,MIC at OIT concentration Qb,"[6]; OIT share at the MIC, Saccharomyces cerevisiae, 72 h",5 ppm
same,Qb/QB,"[6]; Saccharomyces cerevisiae, 72 h",1.00
same,Synergy index Qa/QA + Qb/QB,"[6]; Saccharomyces cerevisiae, 72 h",1.00
same,Total concentration MIT/BIT + OIT,"[6]; at the MIC, Saccharomyces cerevisiae, 72 h",5 ppm
same,MIC value,"[6]; used alone, 72 h at 25° C.",5 ppm
